From publication PMC5216765, “Tumor suppressor berberine binds VASP to inhibit cell migration in basal-like breast cancer” (Oncotarget, 2016)

Target: T1, VASP (vasodilator-stimulated phosphoprotein) (Homo sapiens, UniProt P50552)
T1 construct: recombinant VASP expressed in E. coli Rosetta (IPTG, 18 °C), as previously described
Experiment: intrinsic tryptophan fluorescence quenching titration (excitation […] nm)
Format: binding
Settings: 25 °C; 0.4 μM VASP; berberine 0 to 3.4 μM

T1 sequence (P50552 2-380): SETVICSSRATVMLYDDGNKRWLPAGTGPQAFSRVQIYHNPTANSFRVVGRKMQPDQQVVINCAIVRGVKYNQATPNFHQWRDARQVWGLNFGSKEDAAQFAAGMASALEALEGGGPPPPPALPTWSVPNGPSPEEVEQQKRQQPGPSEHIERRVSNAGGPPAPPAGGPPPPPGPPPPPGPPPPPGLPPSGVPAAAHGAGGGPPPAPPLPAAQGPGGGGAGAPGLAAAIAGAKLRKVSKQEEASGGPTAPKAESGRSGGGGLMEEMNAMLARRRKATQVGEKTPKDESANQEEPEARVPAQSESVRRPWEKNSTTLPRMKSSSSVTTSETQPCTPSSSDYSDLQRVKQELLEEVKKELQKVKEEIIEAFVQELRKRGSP

How did the Kd turn out when `COc1ccc2cc3[n+](cc2c1OC)CCc1cc2c(cc1-3)OCO2` [berberine] was run?
Its Kd is 100 nM.
